Earlier results as cited in US20030004116A1, “Noni extract for prevention of disease” (priority 2001, published 2003).

Legend:
[1] = test system: RSV-NRK cells expressing the src oncogene
[2] = test system: K-ras-NRK cells; details: reversible when compound withdrawn

Q: For COc1c(C=O)c(O)cc2c1C(=O)c1ccccc1C2=O [Damnacathal], which effect on cells [1] is on record?
A: no effect

Q: And the “morphology and cytoskeletal structure” value [2]?
A: induced normal morphology and cytoskeletal structure
